The source of these data is patent US20250032400A1, “PERSONAL CARE COMPOSITION” (Conopco, Inc., d/b/a UNILEVER, priority 2021, published 2025).

Assay [1] concerns hyaluronan synthase 3 (HAS3). Description: HAS3 gene expression by RT-PCR in normal human epidermal keratinocytes incubated with actives. It counts as cell-based. Conditions: NHEK, 24 hours, 0.05 wt % of LCC in medium. The protocol:
(§1) The normal human epidermal keratinocytes (NHEK) (Biocell, Xi'an, China) were incubated in medium together with or without actives for 24 hours. After incubation, the total RNA for each NHEK was extracted using RNAiso Plus (TaKaRa, Cat: 9108; Cat: RR036) according to manufacturer's protocol.
(§2) The extracted RNA was quantified using Nanodrop spectrometer (Thermo Fisher Scientific, Waltham, MA, US) and reverse transcribed to generate the template cDNA using the PrimeScript II 1st Strand cDNA synthesis kit according to manufacturer's protocol. Amplification of the gene encoding the hyaluronan synthase 3 (HAS3) and CD44 was performed with RT-PCR reagent (SYBR® Premix Ex Taq™) on the ABI Vii 7 Real-Time PCR Systems (Applied Biosystems, Thermo fisher scientific, Carlsbad, CA, USA). The beta-actin gene was selected as the housekeeping gene and all data on relative expression of the target genes was normalized to beta-actin. The fold changes in expression were calculated relative to the blank control (medium having no active).

The test system of assay [2] is CD44. The assay can be described thus: CD44 gene expression by RT-PCR in normal human epidermal keratinocytes incubated with actives. It counts as cell-based. Conditions: NHEK, 24 hours, 0.05 wt % of LCC in medium. Here is the method:
as §1, §2

Regarding Lysine carboxymethyl cysteinate [LCC], the “HAS3 expression (fold change relative to blank control, normalized to beta-actin)” value in assay [1] turned out to be 0.84. For the same substance, in assay [2], the “CD44 expression (fold change relative to blank control, normalized to beta-actin)” value is recorded as 1.06.
